# From article PMC9499467, “Phenanthroindolizidine Alkaloids Isolated from Tylophora ovata as Potent Inhibitors of Inflammation, Spheroid Growth, and Invasion of Triple-Negative Breast Cancer” (International Journal of Molecular Sciences, 2022)
# Like-named read-outs stand apart in the source and are kept apart here.
# Legend:
# [1] = system: NFκB; assay: NFκB inhibition assay (2 h), NFκB-dependent nanoluc luciferase reporter; type: cell-based, human; details: Homo sapiens; NFκB-MDA-MB-231-nanoluc cells, 2-h treatment, mean ± SD; read-out: NFκB Inhibition 2 h IC50
# Method: Experiments were performed according to the published protocol. On day 1, 4 × 10^4 NFκB-MDA-MB-231-nanoluc cells were seeded into white 96 well plates (Greiner; #655098). On day 2, the medium was replaced with starvation medium and the cells were pre-incubated for 20 min with either 100 µL of DMSO (Roth; #A994.1) alone at a concentration of maximal 0.1% or with the final concentration of the diluted compounds (Table 3). To activate NFκB signaling, cells were stimulated with 1 µg/mL LPS (Sigma-Aldrich; #L2630) beforehand. NFκB-dependent luciferase activity was measured according to the manufacturer`s protocol for the Nano-Glo Luciferase Assay System (Promega, Mannheim, Germany; #N1110). NFκB-dependent luminescence was determined as relative light units (RLU) using the microplate reader Spark® (Tecan, Männedorf, Switzerland).
# [2] = system: MDA-MB-468-UnaG; assay: 2D cell viability in MDA-MB-468-UnaG under normoxia or CoCl2-simulated hypoxia
# [3] = system: 3D co-culture spheroids of MDA-MB-231 and primary murine CAFs; assay: 3D cell viability (ATP content) in TNBC co-culture spheroids; type: cell-based, human MDA-MB-231; details: Mus musculus, MDA-MB-231
# Method: On day 1, 3000 cells were seeded into a low-attachment 96 well plate (Greiner; #650970). […] Cell viability was determined based on the ATP content in viable cells according to the manufacturer`s instructions (Promega #G9682). Co-culture spheroids were generated for 72 h before they were grown for another 72 h with or without exposure to the compounds. […] Cell viability-dependent luminescence was determined as relative light units (RLU) using the microplate reader Spark® (Tecan).
# [4] = system: NFκB; assay: NFκB inhibition assay (24 h), NFκB-dependent firefly luciferase reporter; type: cell-based; details: Homo sapiens; NFκB-MDA-MB-231-firefly cells, 24-h treatment, 20 ng/mL TNFα, mean ± SD; read-out: NFκB Inhibition 24 h IC50
# Method: On day 1, 3 × 10^4 NFκB MDA-MB-231-firefly cells were seeded into white 96 well plates (Greiner; #655098). On day 2, the medium was replaced with starvation medium and the cells were pre-incubated for 20 min with either 100 µL of DMSO (Roth; #A994.1) alone at maximal 0.1%, or with the final concentration of the diluted compounds (Table 3). To activate NFκB signaling, cells were stimulated with 20 ng/mL TNFα (Peprotech, Hamburg, Germany; #300-01A). Cell lysis was performed in 20 µL 1× cell lysis buffer according to the manufacturer’s instruction for the Luciferase Assay System (Promega #E1500). NFκB-dependent luminescence was determined as relative light units (RLU) using the microplate reader Spark® (Tecan).
# [5] = system: MDA-MB-231; assay: 2D cell viability (PrestoBlue resazurin) in MDA-MB-231; type: cell-based, human; details: Homo sapiens
# Method: Cell viability was determined based on resazurin-reduction in viable cells according to the PrestoBlue^TM Assay. On day 1, MDA-MB-231 (1.5 × 10^4 cells per well or 7.5 × 10^3 cells per well) were seeded into black 96 well plates (Greiner; #655090) in a total volume of 100 µL. On day 2, the compounds or DMSO (Roth; #A994.1) alone at maximal 0.1% were applied (final concentrations after serial dilution shown in Table 3). An amount of 20 µM staurosporine (Sigma-Aldrich; #S5921) served as a positive control. On day 3, the PrestoBlue^TM reagent (Invitrogen^TM, Darmstadt, Germany; #A13262) was applied according to the manufacturer`s instructions. Finally, cell viability-dependent fluorescence was recorded in relative fluorescence units (RFU) with excitation/emission (Exλ/Emλ) at 535/590 nm or 560/590 nm, using the microplate reader Spark® (Tecan).
# [6] = system: 3D co-culture spheroids of MDA-MB-231 and primary murine CAFs; assay: 3D growth studies, spheroid size of co-culture spheroids; type: cell-based, human MDA-MB-231; details: 100 nM, 72 h
# Method: To emulate the TNBC microenvironment, 3D spheroids composed of MDA-MB-231 and CAFs at a ratio of 1:2 in a collagen-based matrix were generated. The culture medium of both cell lines was mixed (DMEM:RPMI 1640 (1:1) + 12.5% FCS + 1% PS) and supplemented with 0.05 mg/mL collagen type I (Thermo Fisher Scientific; #A1048301). On day 1, 3000 cells were seeded into a low-attachment 96 well plate (Greiner; #650970). Spheroids were grown for 72 h before proceeding with compound treatment on day 4, and analysis on day 7 according to the “Spheroid immunostaining”, “3D cell viability”, or “3D growth” studies presented in the results section.
# Co-culture spheroids were generated for 72 h before they were exposed to either DMSO (Roth; #A994.1) alone at maximal 0.1%, 100 nM paclitaxel (Santa Cruz Biotechnology; #sc-201439), or 100 nM of compound (1) for another 72 h. At least three spheroids per treatment group were analyzed. For that purpose, brightfield images of the spheroids were acquired at 100× g magnification using the microscope Axio Vert.A1 (Zeiss). The spheroid surface area was quantified in brightfield images using Fiji (open-source software; version 1.52i) and was further defined as spheroid size. In each individual experiment spheroid size was normalized to the smallest (which was set to 0%) and to the largest spheroids (which was set to 100%).
# [7] = system: MDA-MB-468-UnaG; assay: Cell cycle studies (PI-DNA flow cytometry) in MDA-MB-468-UnaG; type: cell-based; details: normoxia
# Method: To investigate cell cycle progression in the presence of compound (1s) or paclitaxel (Santa Cruz Biotechnology; #sc-201439), we quantified the DNA content in the cell. On day 1, the cells were seeded in 1 mL into a 24 well plate (Greiner; #662160). On day 2, MDA-MB-468-UnaG were pre-treated either without (normoxia) or with 100 µM CoCl2 (hypoxia) (Sigma-Aldrich; #C8661) for 24 h before compounds were applied. On day 2 for MDA-MB-231 or on day 3 for MDA-MB-468-UnaG, paclitaxel was applied at the concentrations 15 nM, 37 nM, and 100 nM, and compound (1s) was applied at concentrations ranging from 2 nM to 1000 nM. Post-treatment cells were washed in 1× PBS (Thermo Fisher Scientific; #14190); fixed in 70% (v/v) ethanol overnight at 4 °C; washed again in 1× PBS; and, finally, DNA was stained for 15 min at 37 °C in the presence of 10 µg/mL propium iodide (PI; Sigma-Aldrich; #4864) and 100 µg/mL RNase A (Thermo Fisher Scientific; #EN0531) dissolved in 0.1% triton™ X-100 (Sigma-Aldrich; #X100), dissolved in PBS. The fluorescence signal resulting from PI-DNA complex formation was recorded using the flow cytometer CytoFlex (Beckmann Coulter, Krefeld, Germany). The cell cycle phase population was determined based on the DNA content in a set of chromosomes (n) in a cell using the integrated software CytExpert (Beckmann Coulter): sub-G0/G1 (<2n), G0/G1 (2n), S (>2n, <4n), G2/M (4n) or hyperploid cells (>4n) (see Figure S10).
smiles,measurement,setting,value
"CC(=O)O[C@H]1C(=O)[C@@]2(C)[C@H]([C@H](OC(=O)c3ccccc3)[C@]3(O)C[C@H](OC(=O)[C@H](O)[C@@H](NC(=O)c4ccccc4)c4ccccc4)C(C)=C1C3(C)C)[C@]1(OC(C)=O)CO[C@@H]1C[C@@H]2O [Paclitaxel, paclitaxel, reference compound]",IC50,[1],> 1000 nM
same,IC50,"[2]; 24 h, read-out: cell viability IC50, hypoxia",> 1000 nM
same,decrease of cytotoxic effects by hypoxia (factor),"[2]; hypoxia vs normoxia, MDA-MB-468-UnaG",≥ 100
same,IC50,"[2]; read-out: cell viability IC50, normoxia",7.7 nM
same,IC50,"[3]; 3D co-culture spheroids, 72 h treatment, mean ± SD (n = 3), read-out: Reduction of Cell Viability 72 h IC50",43 ± 14.3 nM
same,IC50,"[3]; co-culture spheroids, 72 h, one individual experiment (Figure S3b), read-out: IC50 of representative dose-response, 3D cell viability",42.8 nM
same,IC50,[4],> 1000 nM
same,IC50,"[5]; MDA-MB-231 2D monolayer, 24 h post-treatment, mean ± SD, read-out: Reduction of Cell Viability 24 h IC50",37.4 ± 8.6 nM
same,IC50,"[5]; MDA-MB-231, 24 h, one individual experiment (Figure S3a), read-out: IC50 of representative dose-response, 2D cell viability",36.9 nM
same,reduction of spheroid growth compared to untreated spheroids,[6],25%
same,sub-G0/G1 population,[7]; 48 h,increase in the sub-G0/G1 population
same,cell cycle phase population,"[7]; (1s) 20 nM 72 h, paclitaxel within 24 h",significantly induces a G2/M arrest
